The values below come from ChEMBL document CHEMBL3507680, “University of Dundee, Gates Library screen for HepG2 cell viability”.

Molecules are shown by their SMILES.

The series is described as follows: Human HepG2 cell viability assay in 384 well format. In kind it is toxicity, cell-based. As to conditions: HepG2 cells, read-out: Inhibition. The arrangement: dose 125 nL, time 70.5 hour; concentration not given beside the values.
`CC(Cn1cccn1)NCCCc1nc(-c2cccs2)no1` (centres undefined): the cytotoxicity at 70.5 h is 1.95%. For `O=C1CC(NCc2ccc(Cl)s2)CN1Cc1cccc(F)c1` (centres undefined), the cytotoxicity at 70.5 h is -7.49%. The same measure for `COCCC1(CNC(=O)NCC2CCCS2)CCCC1` (centres undefined): -3.7%; for `CC(=O)Nc1nc(C2CCN(C(=O)Cc3ccccc3)CC2)cs1`: -5.09%. In the case of `COCCn1cc(NC(=O)NCC(C)N2CCOCC2)cn1` (centres undefined) it was -13.2%. Regarding `O[C@H]1CN(CCOc2ccc(F)cc2)CC[C@@]12CCCO2`, the cytotoxicity at 70.5 h is -2.62%. The same measure for `Cc1cnc(N2CCC3(CC2)CC3CN(C)Cc2cccnc2)nc1` (centres undefined): 2.52%; for `CCN(C(c1cccnc1)c1ccc2c(c1)CCC2)S(C)(=O)=O` (centres undefined): 3.11%; for `CN(C1CCCCC1)S(=O)(=O)NC1CCN(c2ncccn2)CC1`: -7.52%. In the case of `O=S1(=O)CCC(c2nc(-c3cccc(Br)c3)no2)C1` (centres undefined) it was -8.75%; in that of `COCCN1C[C@H]2CCN(C(=O)Nc3ccccc3C)CC[C@H]2S1(=O)=O`, -11.5%; in that of `Cc1cccc(C)c1OCC(C)Nc1nc(N)nc2c1CCNC2` (centres undefined), -11.5%.

With `O=C(C1CCOC1)N1CCN(Cc2ccc3c(c2)CCO3)CC1` (centres undefined), the cytotoxicity at 70.5 h was -9.08%. The same measure for `c1ccc(N2CC[C@@H]3CN(Cc4ccncc4)CCO[C@@H]3C2)cc1`: -1.73%. For `N[C@@H]1c2ccccc2C2(CCN(C(=O)c3ccc(=O)[nH]c3)CC2)[C@H]1O`, the cytotoxicity at 70.5 h was -6.66%. In the case of `CC(C)c1noc(CN2CCCN(Cc3cccs3)CC2)n1` it was -25.6%; in that of `Cn1cc(Cl)cc1C(=O)N1CCN(CCc2cccs2)CC1`, -4.15%. The same measure for `COc1cccc(N2CCN(C(=O)C(O)c3ccccc3Cl)CC2=O)c1` (centres undefined): -4.36%. In the case of `CCOC(C)c1noc(CN(C)C(=O)c2ccncc2)n1` (centres undefined) it was 0.244%. As to `NC(=O)c1cccc(OCC(=O)N2CCCC(n3ccnc3)C2)c1` (centres undefined), the cytotoxicity at 70.5 h is -11.1%. In the case of `CCN1C(=O)CC[C@@H]2[C@H]1CCN2S(=O)(=O)c1cccs1` it was -4.53%. With `CN1C(=O)CCc2cc(NS(=O)(=O)Cc3cccc(F)c3)ccc21`, the cytotoxicity at 70.5 h is -8.13%. The same measure for `COCCC(=O)N1C[C@@H](c2ccc(F)c(F)c2)[C@@]2(CCCC(=O)N2)C1`: -1.65%; for `CC(CN1CCOCC1)NC(=O)c1cc(Cl)c2c(c1)OCCO2` (centres undefined): 0.172%; for `CCc1nnc2n1CCN(Cc1nnc(-c3occc3C)o1)C2`: -4.81%. The same measure for `COc1c(CNCc2cccc(Cn3cncn3)c2)c(C)nn1C`: -0.463%; for `CC(=O)NCc1ccc(C(=O)N2CCCC(n3cncn3)C2)o1` (centres undefined): 20.5%.

Regarding `CC(C)S(=O)(=O)N1CCCC(c2cccc(C(=O)O)c2)C1` (centres undefined), the cytotoxicity at 70.5 h is -10.1%.

Take `Cc1ccccc1N1CC(C)N(C(=O)CCn2cccn2)CC1=O` (centres undefined): the cytotoxicity at 70.5 h was found to be 15.3%.

On to `CC(C)c1nc(CN2CCN(C(=O)CN3CCOCC3)CC2)no1`, for which the cytotoxicity at 70.5 h was 28.7%. The same measure for `Cc1ccc(-c2nc(CC(=O)NCC(C)N3CCOCC3)cs2)o1` (centres undefined): -3.4%; for `CCc1ncncc1C(=O)N1CCN(Cc2ccco2)CC1`: 10.8%. The same measure for `Cc1nn(C)c2nc(NC(C)c3n[nH]c(=O)[nH]3)sc12` (centres undefined): -10.8%.

With `O=C(N1CCCC1)N1CCC[C@]2(C[C@@H](OCc3ccncc3)CO2)C1`, the cytotoxicity at 70.5 h is -10.6%.

`CC(Cn1cccn1)NC(=O)N1CCN(Cc2ccsc2)CC1` (centres undefined): the cytotoxicity at 70.5 h is -1.89%.

With `CN(C)C(=O)N1C[C@@H]2COC[C@]2(c2nnc(C3CC3)o2)C1`, the cytotoxicity at 70.5 h is -10.1%.

As for `CC(C)c1cc(C2CCN(C(=O)Cn3cncn3)CC2)[nH]n1`, the cytotoxicity at 70.5 h is 43.3%. In the case of `COC[C@]1(O)CCN(C(=O)c2ccc(CN(C)C)o2)CC1(C)C` it was -12.5%. The same measure for `O=C(CN1CCOC(c2ccc(Cl)c(Cl)c2)C1)NCc1ccco1` (centres undefined): 3.47%; for `CCOc1cc(/C=C/c2ncc(C(=O)O)s2)ccc1O`: 0.103%; for `Cc1noc([C@H]2C[C@H]3OCC[C@H]3N(Cc3ccncc3)C2)n1`: -7.52%.

Take `Cc1noc(C)c1CN(C)C(=O)c1ccc(O)nc1`: the cytotoxicity at 70.5 h was -5.72%.

In the case of `COc1ccccc1C(O)CNCc1c(C(C)C)nn(C)c1N(C)C` (centres undefined), the cytotoxicity at 70.5 h is 13.7%. In the case of `Cc1ccc(C(CCNCCN(C)C)C2CCOC(C)(C)C2)cc1` (centres undefined) it was -5.89%; in that of `CCCN(Cc1cnn(C)c1)S(=O)(=O)c1ccc(F)c(C#N)c1`, -7.37%; in that of `CNC(=O)CCS(=O)(=O)Cc1cc(Cl)c2c(c1)OCCCO2`, -3.42%. In the case of `CC(C)(C)OC(=O)N1CCN(c2nnc(Br)s2)CC1` it was 18.7%; in that of `CCn1cc2c(n1)CN(Cc1ccoc1)CC2COCC1CC1` (centres undefined), 6.36%; in that of `Cc1ccc(F)cc1S(=O)(=O)NCc1[nH]ncc1Br`, -0.985%.

Consider `CC1CCN(C[C@H]2CN3CC[C@H]2C[C@@H]3CNC(=O)Nc2ccsc2)CC1`, for which the cytotoxicity at 70.5 h was 10.5%. In the case of `Cc1ccc(N2CCCC(NCc3nc(C)c(C)o3)C2)nn1` (centres undefined) it was -14.3%; in that of `O=C1NC(c2cnc(C3CCC3)s2)Nc2ccccc21` (centres undefined), -9.55%. The same measure for `CCC1=N[C@@]2(CC[C@@H]3CN(CC4CC4)C[C@@H]32)C(=O)N1`: 7.37%; for `CC(NC(=O)N1CCS(=O)(=O)CC1)c1c(F)cccc1Cl` (centres undefined): -4.16%.

Turning to `O=C(CN1CCCCC1Cn1cncn1)NCc1ccccn1` (centres undefined), the cytotoxicity at 70.5 h was -4.27%. The same measure for `O=C(CN1CCOCC1)N1CCC(c2cc(N3CCCC3)ncn2)CC1`: -3.77%.

For `NC(=O)C(Cc1ccccc1)NS(=O)(=O)Cc1ccccc1Cl` (centres undefined), the cytotoxicity at 70.5 h turned out to be 7.03%.

Turning to `CN1CCN(C(CNC(=O)CCn2cccn2)c2cccs2)CC1` (centres undefined), the cytotoxicity at 70.5 h was -4.76%. In the case of `Cc1nn(-c2ccccc2)nc1C(=O)N1CCCC(n2cccn2)C1` (centres undefined) it was -1.86%; in that of `CC(C)n1c2ccccc2c2c1cc(C(=O)N(C)C)n2C(=O)N(C)C`, -0.266%. Turning to `CC(O)CN1CCN(C(=O)c2cccc3[nH]ncc23)CC1` (centres undefined), the cytotoxicity at 70.5 h is -3.67%.

As for `CCNC(=O)c1ccc2c(c1)nc1n2CCN(C(C)C)C1`, the cytotoxicity at 70.5 h is -9.53%. In the case of `Cc1ccc(N2CC[C@H]3[C@@H]2CCC(=O)N3CCN2CCOCC2)nn1` it was -6.53%; in that of `COc1ccccc1NCC(=O)NCc1scnc1C`, 13.6%; in that of `Cc1cc(C)n(C2CCN(Cc3nc4ccccc4n3C)CC2)n1`, 1.81%. The same measure for `Cc1csc(C(C)(C)NCC(=O)N2CCCC(C(F)(F)F)C2)n1` (centres undefined): 8.68%; for `O=c1[nH]c(-c2ccncc2)ncc1-c1ccnc(N2CCOCC2)n1`: -2.39%; for `CC(=O)N1[C@H](Cn2cncn2)C[C@@H]2CN(c3ccc(C)nn3)CC[C@@H]21`: -6.42%. In the case of `COc1c(C)cnc(CN2CCCCC2Cn2nc(C)nc2C)c1C` (centres undefined) it was 16.8%.
